Measured values reported in PubChem BioAssay (NCI).
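Test compounds were applied to cells in 96-well plates for 48 hours at 5 doses. At the GI50, growth is halved. The concentration for full growth arrest is given as TGI.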

What was measured:
Experiment in all cases: NCI tumour cell line growth inhibition, 48 h
HOP-62 NSCLC = test system: HOP-62 NSCLC
SNB-19 CNS = test system: SNB-19 CNS
OVCAR-5 ovarian = test system: OVCAR-5 ovarian
UACC-257 melanoma = test system: UACC-257 melanoma
SK-MEL-2 melanoma = test system: SK-MEL-2 melanoma
BT-549 breast = test system: BT-549 breast
M14 melanoma = test system: M14 melanoma
HCT-15 colon = test system: HCT-15 colon
A549 NSCLC = test system: A549 NSCLC
COLO 205 colon = test system: COLO 205 colon
SF-268 CNS = test system: SF-268 CNS
NCI-H460 lung = test system: NCI-H460 lung
SF-539 CNS = test system: SF-539 CNS
LOX IMVI melanoma = test system: LOX IMVI melanoma
OVCAR-8 ovarian = test system: OVCAR-8 ovarian
HCT-116 colon = test system: HCT-116 colon
MDA-MB-435 = test system: MDA-MB-435
UO-31 renal = test system: UO-31 renal
UACC-62 melanoma = test system: UACC-62 melanoma
HL-60(TB) leukemia = test system: HL-60(TB) leukemia
SK-MEL-5 melanoma = test system: SK-MEL-5 melanoma
A498 renal = test system: A498 renal
SK-MEL-28 melanoma = test system: SK-MEL-28 melanoma
EKVX NSCLC = test system: EKVX NSCLC
SNB-75 CNS = test system: SNB-75 CNS
U251 CNS = test system: U251 CNS
ACHN renal = test system: ACHN renal
SW-620 colon = test system: SW-620 colon

Oc1c(Cl)cc(Cl)c2ccc(Cn3cc(-c4cc(F)cc(F)c4)nn3)nc12
GI50 (HOP-62 NSCLC): 17.4 µM | TGI (HOP-62 NSCLC): 34.9 µM | GI50 (SNB-19 CNS): 11.9 µM | TGI (SNB-19 CNS): 25.1 µM | GI50 (OVCAR-5 ovarian): 4.01 µM | TGI (OVCAR-5 ovarian): 15.4 µM | GI50 (UACC-257 melanoma): 1.76 µM | TGI (UACC-257 melanoma): 4.83 µM | GI50 (SK-MEL-2 melanoma): 5.19 µM | TGI (SK-MEL-2 melanoma): 20.2 µM | GI50 (BT-549 breast): 2.51 µM | TGI (BT-549 breast): 9.49 µM | GI50 (M14 melanoma): 2.02 µM | TGI (M14 melanoma): 4.92 µM | GI50 (HCT-15 colon): 2.21 µM | TGI (HCT-15 colon): 5.42 µM | GI50 (A549 NSCLC): 18.8 µM | TGI (A549 NSCLC): 38.4 µM | GI50 (COLO 205 colon): 2.06 µM | TGI (COLO 205 colon): 4.04 µM | GI50 (SF-268 CNS): 11.3 µM | TGI (SF-268 CNS): 30.3 µM | GI50 (NCI-H460 lung): 18.8 µM | TGI (NCI-H460 lung): 35.8 µM | GI50 (SF-539 CNS): 1.63 µM | TGI (SF-539 CNS): 3.08 µM | GI50 (LOX IMVI melanoma): 1.31 µM | TGI (LOX IMVI melanoma): 2.68 µM | GI50 (OVCAR-8 ovarian): 3.42 µM | TGI (OVCAR-8 ovarian): 27.2 µM | GI50 (HCT-116 colon): 1.61 µM | TGI (HCT-116 colon): 3.53 µM | GI50 (MDA-MB-435): 2.8 µM | TGI (MDA-MB-435): 8.47 µM | GI50 (UO-31 renal): 2.06 µM | TGI (UO-31 renal): 9.93 µM | GI50 (UACC-62 melanoma): 3.39 µM | TGI (UACC-62 melanoma): 14.4 µM | GI50 (HL-60(TB) leukemia): 2.08 µM | TGI (HL-60(TB) leukemia): 5.78 µM | GI50 (SK-MEL-5 melanoma): 4.1 µM | TGI (SK-MEL-5 melanoma): 14.9 µM | GI50 (A498 renal): 5.78 µM | TGI (A498 renal): 19.6 µM | GI50 (SK-MEL-28 melanoma): 2.01 µM | TGI (SK-MEL-28 melanoma): 4.18 µM | GI50 (EKVX NSCLC): 11.7 µM | TGI (EKVX NSCLC): 25.5 µM | GI50 (SNB-75 CNS): 2.07 µM | TGI (SNB-75 CNS): 11.8 µM | GI50 (U251 CNS): 7.38 µM | TGI (U251 CNS): 21.2 µM | GI50 (ACHN renal): 1.73 µM | TGI (ACHN renal): 3.14 µM | GI50 (SW-620 colon): 1.49 µM | TGI (SW-620 colon): 3.35 µM
